Results from ChEMBL document CHEMBL5108001, “Multivalent glucosidase inhibitors based on perylene bisimide and iminosugar conjugates” (Eur J Med Chem, 2022).

Tests used:
[1] = system: Mus musculus; assay: Hypoglycemic activity in C57BL/6J mouse assessed as reduction in postprandial blood glucose level at 1 mg/kg measured after 30 mins by maltose tolerance test; format: functional; settings: 0.5 h
[2] = system: Mus musculus; assay: Hypoglycemic activity in C57BL/6J mouse assessed as reduction in postprandial blood glucose level at 0.5 mg/kg measured after 30 mins by maltose tolerance test; format: functional; settings: 0.5 h
[3] = Toxicity in C57BL/6J mouse assessed as kidneys pathological morphological changes at 2 mg/kg administered for 7 days by hematoxylin-eosin staining based analysis; format: organism-based; settings: in vivo, 168 h, time 7 day
[4] = Inhibition of Aspergillus niger alpha-glucosidase by Lineweaver-Burk plot analysis
[5] = Toxicity in C57BL/6J mouse assessed as reduction in blood LDL level at 2 mg/kg administered for 7 days; format: organism-based; settings: in vivo, 168 h, time 7 day
[6] = system: Oryza sativa; assay: Potency index, ratio of Miglitol Ki to test compound Ki for inhibition of rice alpha-glucosidase measured per DNJ unit
[7] = Toxicity in C57BL/6J mouse assessed as change in blood cholesterol level at 2 mg/kg administered for 7 days; format: organism-based; settings: in vivo, 168 h, time 7 day
[8] = Inhibition of rice alpha-glucosidase by Lineweaver-Burk plot analysis; design: species or system Oryza sativa
[9] = Toxicity in C57BL/6J mouse assessed as change in blood triglyceride level at 2 mg/kg administered for 7 days; format: organism-based; settings: in vivo, 168 h, time 7 day
[10] = Renal toxicity in C57BL/6J mouse assessed as change in blood uric acid level at 2 mg/kg administered for 7 days; format: organism-based; settings: in vivo, 168 h, time 7 day
[11] = system: Mus musculus; assay: Hypoglycemic activity in C57BL/6J mouse assessed as reduction in postprandial blood glucose level per DNJ nit at 0.5 to 2 mg/kg measured after 15 mins by maltose tolerance test relative to Miglitol; format: functional; settings: dose 0.5-2 mg/kg, 0.25 h
[12] = system: Mus musculus; assay: Hypoglycemic activity in C57BL/6J mouse assessed as reduction in postprandial blood glucose level at 1 mg/kg measured after 15 mins by maltose tolerance test; format: functional; settings: 0.25 h
[13] = Cytotoxicity against human GES1 cells assessed as cell viability at 125 uM; format: toxicity, cell-based; settings: read-out: Activity
[14] = Toxicity in C57BL/6J mouse assessed as lungs pathological morphological changes at 2 mg/kg administered for 7 days by hematoxylin-eosin staining based analysis; format: organism-based; settings: in vivo, 168 h, time 7 day
[15] = Toxicity in C57BL/6J mouse assessed as change in CK level at 2 mg/kg administered for 7 days; format: organism-based; settings: in vivo, 168 h, time 7 day
[16] = Hepatotoxicity in C57BL/6J mouse assessed as change in serum AST level at 2 mg/kg administered for 7 days; format: toxicity, organism-based; settings: in vivo, 168 h, time 7 day
[17] = Inhibition of alpha-glucosidase in Kunming mouse using p-nitrophenyl-alpha-glycopyranoside as substrate by Lineweaver-Burk plot analysis
[18] = system: Mus musculus; assay: Hypoglycemic activity in C57BL/6J mouse assessed as postprandial blood glucose level at 2 mg/kg measured after 30 mins by maltose tolerance test (reference value: 368.49 +/-31.28 mg/dl); format: functional; settings: 0.5 h
[19] = system: Mus musculus; assay: Hypoglycemic activity in C57BL/6J mouse assessed as postprandial blood glucose level at 1 mg/kg measured after 30 mins by maltose tolerance test (reference value: 368.49 +/-31.28 mg/dl); format: functional; settings: 0.5 h
[20] = Toxicity in C57BL/6J mouse assessed as change in GLU level at 2 mg/kg administered for 7 days; format: organism-based; settings: in vivo, 168 h, time 7 day
[21] = Toxicity in C57BL/6J mouse assessed as change in blood HDL level at 2 mg/kg administered for 7 days; format: organism-based; settings: in vivo, 168 h, time 7 day
[22] = target: T1, Alpha-mannosidase (Canavalia ensiformis, UniProt C0HJB3); assay: Inhibition of jack bean alpha-mannosidase
T1 sequence (C0HJB3 whole entry): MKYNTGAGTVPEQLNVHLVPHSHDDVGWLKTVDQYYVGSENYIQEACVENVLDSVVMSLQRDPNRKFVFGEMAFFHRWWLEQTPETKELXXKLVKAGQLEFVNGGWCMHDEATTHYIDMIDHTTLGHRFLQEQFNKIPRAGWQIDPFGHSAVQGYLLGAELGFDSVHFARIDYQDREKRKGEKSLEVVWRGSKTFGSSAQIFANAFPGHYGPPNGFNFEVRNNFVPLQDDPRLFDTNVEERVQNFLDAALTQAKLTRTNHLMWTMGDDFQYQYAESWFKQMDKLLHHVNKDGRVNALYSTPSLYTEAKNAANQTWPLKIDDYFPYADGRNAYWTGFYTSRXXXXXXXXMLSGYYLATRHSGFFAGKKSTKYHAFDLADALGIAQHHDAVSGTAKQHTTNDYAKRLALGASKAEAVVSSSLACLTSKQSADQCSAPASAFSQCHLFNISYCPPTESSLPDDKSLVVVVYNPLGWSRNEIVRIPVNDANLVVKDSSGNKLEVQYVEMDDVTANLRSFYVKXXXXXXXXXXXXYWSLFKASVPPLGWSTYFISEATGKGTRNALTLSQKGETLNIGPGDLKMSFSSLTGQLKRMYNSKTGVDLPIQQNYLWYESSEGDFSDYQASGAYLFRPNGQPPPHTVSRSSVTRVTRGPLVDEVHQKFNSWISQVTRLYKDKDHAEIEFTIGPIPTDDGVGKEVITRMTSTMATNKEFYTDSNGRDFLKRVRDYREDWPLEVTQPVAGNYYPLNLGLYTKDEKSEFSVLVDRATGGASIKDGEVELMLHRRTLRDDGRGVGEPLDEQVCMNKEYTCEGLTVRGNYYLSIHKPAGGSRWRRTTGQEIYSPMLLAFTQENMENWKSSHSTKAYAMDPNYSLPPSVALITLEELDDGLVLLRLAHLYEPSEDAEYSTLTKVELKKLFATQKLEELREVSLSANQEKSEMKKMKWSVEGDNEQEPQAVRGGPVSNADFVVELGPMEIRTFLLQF

[23] = system: Mus musculus; assay: Hypoglycemic activity in C57BL/6J mouse assessed as reduction in postprandial blood glucose level at 0.5 mg/kg measured after 15 mins by maltose tolerance test; format: functional; settings: 0.25 h
[24] = Toxicity in C57BL/6J mouse assessed as change in body weight at 2 mg/kg administered for 7 days; format: organism-based; settings: in vivo, 168 h, time 7 day
[25] = Toxicity in C57BL/6J mouse assessed as spleen pathological morphological changes at 2 mg/kg administered for 7 days by hematoxylin-eosin staining based analysis; format: organism-based; settings: in vivo, 168 h, time 7 day
[26] = system: Mus musculus; assay: Hypoglycemic activity in C57BL/6J mouse assessed as reduction in postprandial blood glucose level at 2 mg/kg measured after 15 mins by maltose tolerance test; format: functional; settings: 0.25 h
[27] = Toxicity in C57BL/6J mouse assessed as hepatic pathological changes by measuring hepatocytes distributed radially around the central veins at 2 mg/kg administered for 7 days by hematoxylin-eosin staining based analysis; format: organism-based; settings: in vivo, 168 h, time 7 day
[28] = target: T2, Alpha-mannosidase (Canavalia ensiformis) (UniProt C0HJB3); assay: Potency index, ratio of Miglitol Ki to test compound Ki for inhibition of jack bean alpha-mannosidase measured per DNJ unit
T2 sequence (whole entry): T1 sequence (C0HJB3 whole entry)

[29] = Hepatotoxicity in C57BL/6J mouse assessed as change in serum ALP level at 2 mg/kg administered for 7 days; format: toxicity, organism-based; settings: in vivo, 168 h, time 7 day
[30] = system: Mus musculus; assay: Hypoglycemic activity in C57BL/6J mouse assessed as postprandial blood glucose level at 0.5 mg/kg measured after 30 mins by maltose tolerance test (reference value: 368.49 +/-31.28 mg/dl); format: functional
[31] = Toxicity in C57BL/6J mouse assessed as heart pathological morphological changes at 2 mg/kg administered for 7 days by hematoxylin-eosin staining based analysis; format: organism-based; settings: in vivo, 168 h, time 7 day
[32] = system: Mus musculus; assay: Hypoglycemic activity in C57BL/6J mouse assessed as reduction in postprandial blood glucose level per DNJ unit at 0.5 to 1 mg/kg measured after 30 mins by maltose tolerance test relative to Miglitol; format: functional; settings: dose 0.5-1 mg/kg
[33] = Renal toxicity in C57BL/6J mouse assessed as change in blood urea level at 2 mg/kg administered for 7 days; format: organism-based; settings: in vivo, 168 h, time 7 day

## O=C1c2cc(Cl)c3c4c(Oc5ccc(OCc6cn(CCCN7C[C@H](O)[C@@H](O)[C@H](O)[C@H]7CO)nn6)cc5)cc5c6c(cc(Oc7ccc(OCc8cn(CCCN9C[C@H](O)[C@@H](O)[C@H](O)[C@H]9CO)nn8)cc7)c(c7c(Oc8ccc(OCc9cn(CCCN%10C[C@H](O)[C@@H](O)[C@H](O)[C@H]%10CO)nn9)cc8)cc(c2c37)C(=O)N1Cc1cn(CCCN2C[C@H](O)[C@@H](O)[C@H](O)[C@H]2CO)nn1)c64)C(=O)N(Cc1cn(CCCN2C[C@H](O)[C@@H](O)[C@H](O)[C@H]2CO)nn1)C5=O
[1]
  inhibition in vivo at 1 mg/kg: 23.8%
[2]
  inhibition in vivo at 0.5 mg/kg: 12.3%
[3]
  Activity: Non-Toxic
[4]
  Ki: 8040 nM
[5]
  Activity: 0.24 mmol/L
[6]
  Ratio Ki: 3.6
[7]
  Activity: Non-Toxic
[8]
  Ki: 10 nM
[9]
  Activity: Non-Toxic
[10]
  Activity: Non-Toxic
[11]
  fold change (FC): 1.6
[12]
  inhibition in vivo at 1 mg/kg: 26.9%
[13]
  viability at 125 µM: 92%
[14]
  Activity: Non-Toxic
[15]
  Activity: Non-Toxic
[16]
  Activity: Non-Toxic
[17]
  Ki: 310 nM
[18]
  Activity: 287.49 mg/dL
[19]
  Activity: 304.2 mg/dL
[20]
  Activity: Non-Toxic
[21]
  Activity: Non-Toxic
[22]
  Ki: 120 nM
[23]
  inhibition in vivo at 0.5 mg/kg: 18%
[24]
  Activity: Non-Toxic
[25]
  Activity: Non-Toxic
[26]
  inhibition in vivo at 2 mg/kg: 31.9%
[27]
  Activity: Non-Toxic
[28]
  Ratio Ki: 175
[29]
  Activity: Non-Toxic
[30]
  Activity: 323.49 mg/dL
[31]
  Activity: Non-Toxic
[32]
  fold change (FC): 1.5
[33]
  Activity: Non-Toxic
